# Source: the NIST ThermoML archive (doi:10.1021/je700271n)
# Numbers after ± are expanded uncertainties.
# Settings: Liquid
vapor or sublimation pressure (273.15 K) [kPa],vapor or sublimation pressure (283.15 K) [kPa],vapor or sublimation pressure (293.15 K) [kPa],vapor or sublimation pressure (303.15 K) [kPa],vapor or sublimation pressure (313.15 K) [kPa],vapor or sublimation pressure (323.15 K) [kPa],Compound
195 ± 3,280 ± 4,389 ± 5,527 ± 7,704 ± 9,920 ± 11,"FC(C(F)(F)F)C(F)(F)F [1,1,1,2,3,3,3-heptafluoropropane]"
476 ± 6,632 ± 8,833 ± 10,1079 ± 13,1366 ± 17,1709 ± 21,CCC [propane]
